Results on five compounds are retold here after patent publication US20220151935A1, “USE OF AMINO ACID BASED NUTRIENTS AND PHARMACEUTICAL COMPOSITION CONTAINING THE SAME” (priority 2018, published 2022).

Like-named read-outs stand apart in the source and are kept apart here. Marks after values point to notes of the source that are not given here.

The test system of one data set is hyperthyroidism. Briefly: Hyperthyroidism model in rats (levothyroxine). The following applies: first experiment, 25th day after administration, RIA.
Data set [1] has as its system human breast cancer cells (MDA-MB231). Briefly: Tumor inhibition in nude mice bearing human breast cancer cells (MDA-MB231). To be noted: Example 2; intratumoral 100 μl/mouse every 3 days x3; next day; avg tumor volume 71 mm^3.
Method: (§3) The tumor growth inhibition rate (abbreviated as tumor inhibition rate in the present invention) is calculated through the following equation:
(§4) wherein TW is an average tumor weight of a study group; CW is an average tumor weight of a negative control group.
(§5) In the following experiments, the nude mice bearing human tumor cells and successfully modeled were randomly divided into 1 negative control group and 4 study groups (groups A, B, C, and D). The corresponding negative control was normal saline. The four study drugs were 20% arginine, 3% glutamic hydrochloride, 10% alanyl-glutamine, and 10% glutathione. Each group was injected intratumorally, once every 3 days, for a total of 3 times, each time with 100 μl/mouse. On the next day after the administration of drugs was ended, the animals were euthanized, the tumor weight was measured after anatomy, and the tumor inhibition rate was calculated from the respective negative control group.
In this research experiment, successfully modeled nude mice bearing human breast cancer cells (MDA-MB231) (with an average tumor volume of 71 mm^3) were randomly divided into a negative control group and 4 study groups (groups A, B, C, and D).
Each group was injected intratumorally, once every 3 days, for a total of 3 times, each time with 150 μl/mouse. On the next day after the administration was ended, the animals were euthanized, the tumor weight was measured after anatomy, and the tumor inhibition rate was calculated from the respective negative control group.
Each group was injected intratumorally, once every 3 days, for a total of 3 times, each time with 100 μl/mouse. On the next day after the administration was ended, the animals were euthanized, the tumor weight was measured after anatomy, and the tumor inhibition rate was calculated from the respective negative control group.
Data set [2] relates to pancreatic cancer cells PANC-1. Briefly: Tumor inhibition in nude mice bearing pancreatic cancer cells PANC-1. The following applies: for Tumor inhibition rate of intraperitoneal injection / Tumor inhibition rate of intratumoral injection: Table 3, avg tumor volume 105 mm^3, 100 μl/mouse every 3 days x3, next day after last dose; for Tumor inhibition rate: Table 4, avg tumor volume 136 mm^3, intratumoral every 3 days x3, ≤150 μl, next day. The format is in vivo. As to the method: (§1) They were injected intraperitoneally and intratumorally.
After anatomy, the tumor weight was measured and the tumor inhibition rate was calculated.

Another data set has as its system HepG2. Briefly: Intratumoral tissue destruction, histological observation of HepG2 tumors. The following applies: Table 7; intratumoral injection, once, ≤130 μl/mouse; next day; scale 0 = blank control, 5 = 5% acetic acid.
The test system of data set [3] is human nasopharynx cancer cells (CNE1). As to the kind of experiment: Tumor inhibition in nude mice bearing human nasopharynx cancer cells (CNE1). To be noted: Example 2; intratumoral 100 μl/mouse every 3 days x3; next day; avg tumor volume 78 mm^3.
Method: as §3, §4
(§6) In the following experiments, the nude mice bearing human tumor cells and successfully modeled were randomly divided into 1 negative control group and 4 study groups (groups A, B, C, and D). The corresponding negative control was normal saline. […] Each group was injected intratumorally, once every 3 days, for a total of 3 times, each time with 100 μl/mouse. On the next day after the administration of drugs was ended, the animals were euthanized, the tumor weight was measured after anatomy, and the tumor inhibition rate was calculated from the respective negative control group.
In this research experiment, successfully modeled nude mice bearing human nasopharynx cancer cells (CNE1) (with an average tumor volume of 78 mm^3) were randomly divided into a negative control group and 4 study groups (groups A, B, C, and D).
The subject of data set [4] is pancreatic cancer cells PANC-1. The following applies: once, 150 μl, next day, vs blank group.
Method: Both groups A and B were administered the drugs once, with 150 μl each time. The next day after the administration of drug was ended, the 3 groups of animals were euthanized, and the tumors were dissected for histological observation.
Data set [5] has as its system human thyroid cancer cells (SW579). Briefly: Tumor inhibition in nude mice bearing human thyroid cancer cells (SW579). The following applies: Example 2; intratumoral 100 μl/mouse every 3 days x3; next day; avg tumor volume 103 mm^3.
Method: as §3, §4, §5
(§7) In this series of experiments, successfully modeled nude mice bearing human cancer cells were randomly divided into 1 negative control group and 5 study groups (groups A, B, C, D and E). […] Each group was injected intratumorally, once every 3 days, for a total of 3 times, each time with 150 μl/mouse. On the next day after the administration was ended, the animals were euthanized, the tumor weight was measured after anatomy, and the tumor inhibition rate was calculated from the respective negative control group.
(§8) In this series of experiments, successfully modeled nude mice bearing human cancer cells were randomly divided into 1 negative control group and 6 study groups (groups A, B, C, D, E and F). […] Each group was injected intratumorally, once every 3 days, for a total of 3 times, each time with 100 μl/mouse. On the next day after the administration was ended, the animals were euthanized, the tumor weight was measured after anatomy, and the tumor inhibition rate was calculated from the respective negative control group.
(§9) In this series of experiments, successfully modeled nude mice bearing human cancer cells were randomly divided into 1 negative control group and 3 study groups. […] Each group was injected intratumorally, once every 3 days, for a total of 3 times, each time with 150 μl/mouse.
Data set [6] relates to human prostate cancer cells (LNCaP/AR). As to the kind of experiment: Tumor inhibition in nude mice bearing human prostate cancer cells (LNCaP/AR). The following applies: Example 2; intratumoral 100 μl/mouse every 3 days x3; next day; avg tumor volume 91 mm^3.
Method: as §3, §4, §5
In this research experiment, successfully modeled nude mice bearing human prostate cancer cells (LNCaP/AR) (with an average tumor volume of 91 mm^3) were randomly divided into a negative control group and 4 study groups (groups A, B, C, and D).
as §7, §8
In this series of experiments, successfully modeled nude mice bearing human cancer cells were randomly divided into 1 negative control group and 3 study groups. […] Each group was injected intratumorally, once every 3 days, for a total of 3 times, each time with 150 μl/mouse. On the fifth day after the administration was ended, the animals were euthanized, the tumor weight was measured after anatomy, and the tumor inhibition rate was calculated from the respective negative control group.
Data set [7] relates to human stomach cancer cells (BGC823). Briefly: Tumor inhibition in nude mice bearing human stomach cancer cells (BGC823). To be noted: Example 2; intratumoral 100 μl/mouse every 3 days x3; next day; avg tumor volume 85 mm^3.
Method: as §3, §4, §6
In this research experiment, successfully modeled nude mice bearing human stomach cancer cells (BGC823) (with an average tumor volume of 85 mm^3) were randomly divided into a negative control group and 4 study groups (groups A, B, C, and D).
In data set [8] the test system is human lung cancer cells (A549). Briefly: Tumor inhibition in nude mice bearing human lung cancer cells (A549). The following applies: Example 2; intratumoral 100 μl/mouse every 3 days x3; next day; avg tumor volume 83 mm^3.
Method: as §3, §4, §6
In this research experiment, successfully modeled nude mice bearing human lung cancer cells (A549) (with an average tumor volume of 83 mm^3) were randomly divided into a negative control group and 4 study groups (groups A, B, C, and D).
For data set [9], the system named is human head and neck cancer cells (Fμda). As to the kind of experiment: Tumor inhibition in nude mice bearing human head and neck cancer cells (Fμda). The format is in vivo. The following applies: Example 2; intratumoral 100 μl/mouse every 3 days x3; next day; avg tumor volume 109 mm^3. The text has this: (§2) One of the core characteristics of tumors is heterogeneity. […] The corresponding negative control was normal saline.

Data set [10] has as its system human ovary cancer cells (PA1). As to the kind of experiment: Tumor inhibition in nude mice bearing human ovary cancer cells (PA1). The following applies: Example 2; intratumoral 100 μl/mouse every 3 days x3; next day; avg tumor volume 104 mm^3.
Method: as §3, §4, §5, §7, §8, §9
Data set [11] relates to human liver cancer cells (HepG2). Briefly: Tumor weight and tumor inhibition in nude mice bearing HepG2. The following applies: for Intratumoral injection Tumor inhibition rate / Intratumoral injection Tumor weight / Tumor inhibition rate of intraperitoneal injection: 5th day after last dose. Type of data set: in vivo. The method, then:
as §2, §1
The negative control group was given normal saline. The compositions of the study drug are as shown in the table below: 4 types and concentrations of amino acid based nutrient single drugs (X % amino acid based nutrients), 18 types and concentrations of ineffective absorption drugs (Y % ineffective absorption drugs), 24 compositions comprising various types and concentrations of amino acid based nutrients and ineffectively absorption drugs (X % amino acid based nutrients/Y % ineffectively absorption drugs).
The negative control was normal saline. The compositions of 16 study drugs, as shown in the table below, comprise: a 5-fluorouracil single drug of 4 varying concentrations (X % 5-fluorouracil), and an amino acid based nutrient with 5 varying concentrations (Y % amino acid based nutrient), 7 compositions consisting of 5-fluorouracil of varying concentrations and an amino acid based nutrient of varying concentrations (X % 5-fluorouracil/Y % amino acid based nutrient). […] The dose at each time was: 5-fluorouracil 50 mg/kg, glutathione ≤1 g/kg, and an injection volume was ≤150 μl/mouse.
The negative control was normal saline, the positive control was 1% 5-fluorouracil, and the study drug was 1% methylene blue/10% amino acid based nutrient composition (the type of the amino acid based nutrient is variable). The amino acid based nutrients in the compositions used in study groups 1-13 were: arginine, glycine, cysteine hydrochloride, valine, threonine, proline, histidine hydrochloride, phenylalanine, lysine, leucine, alanine, glutathione, serine, and the study drug used in the study group 14 was 1% methylene blue/5% arginine/5% glycine.

A short description of data set [12]: pH of the drug composition. The format is physicochemical. To be noted: Table 14; aqueous solution.
For the next data set, the system named is breast cancer 4T1 cells. As to the kind of experiment: Tumor weight and tumor inhibition in BALB/c mice bearing breast cancer 4T1 cells.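 Further: subcutaneous grafts in the right axilla, tumors excised and weighed after euthanasia, inhibition rate derived from group mean tumor weight versus the negative control group.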
Data set [13] in a line: Saturated concentration of 5-fluorouracil. Type of data set: physicochemical. The following applies: aqueous solution.
Setting [14] is: Example 2, intratumoral 100 μl/mouse every 3 days x3, next day, avg tumor volume 81 mm^3.
Setting [15] is: Table 6, avg tumor volume 153 mm^3, ≤120 μl/mouse every 3 days x3.
The mark [16] stands for this setting: Table 8, avg tumor volume 175 mm^3, ≤150 μl/mouse every 3 days x3.
Setting [17] is: Table 16, avg tumor volume 169 mm^3, intratumoral every 3 days x3, ≤150 μl/mouse, 5th day.
[18] abbreviates: Table 11, avg tumor volume 164 mm^3, intratumoral every 3 days x3, ≤150 μl, fifth day after last dose.
Setting [19] is: Table 10, avg tumor volume 336 mm^3, 150 μl/mouse every 3 days x3, 5th day after last dose.
Where [20] appears, read: Table 12, avg tumor volume 317 mm^3, intratumoral 150 μl/mouse every 3 days x3, 5th day.
[21] abbreviates: Table 14, avg tumor volume 325 mm^3, intratumoral 150 μl/mouse every 3 days x3, 5th day.
Setting [22] is: Table 17, avg tumor volume 317 mm^3, intratumoral 150 μl/mouse every 3 days x3, fifth day.

Method for breast cancer 4T1 cells: In the following examples, unless otherwise specified, animal tests of subcutaneous transplantation tumors were performed in accordance with test guidelines issued by a drug administration authority. […] The subcutaneous transplantation was carried out according to a conventional method for subcutaneous inoculation of tumor cells. […] Items to be observed, measured and analyzed in the experiments included general status, body weight, food intake, tumor volume, tumor weight, thymus weight, spleen weight, and the like.
as §3, §4
The effects of the co-use of drugs (including efficacy and safety) can theoretically be based on the judgment of q:
q=actual combined effect/theoretical expected effect of simple addition.
When q=1, the actual combined effect meets the theoretical expectation, showing an additive effect; when q<1, the actual combined effect is weaker than the theoretical expectation, showing an antagonistic effect; and when q>1, the actual combined effect exceeds the theoretical expectation, showing a synergic effect. Unless otherwise specified, single-use efficacy of A or B (denoted as EA and EB respectively) and the actual combined efficacy of A/B (denoted as EA+B) are both tumor inhibition rates.
In one experiment, the test animal was a BALB/c mouse, the modeling cells were breast cancer 4T1 cells, and the transplantation tumor was modeled at 1×10^6 cells/mouse under the skin of the animal's right axilla. […] The experimental groups were divided into 1 negative control group (group 0) and 13 study groups (groups 1-13). They were all injected intratumorally. […] Each group was administered once every 3 days for a total of 3 times, each time at an injection dose of 150 μl//mouse. During the administration, general state of the animals and the degree of necrosis of normal tissues around the tumor after the administration were observed. On the 5th day after the administration was ended, the animals were euthanized, and the tumor weight was measured after anatomy to the animals. The tumor inhibition rate was calculated from the negative control group of each administration mode.
In another experiment, the test animal was a BALB/c mouse, the modeling cells were breast cancer 4T1 cells, and the transplantation tumor was modeled at 1×10^6 cells/mouse under the skin of the animal's right axilla. […] Each group was administered by intratumoral injection once every 3 days for a total of 3 times, each time at an injection dose of 150 μl/mouse. On the 5th day after the administration was ended, the animals were euthanized, and the tumor weight was measured after anatomy to the animals. The tumor inhibition rate was calculated from the negative control group.
In another experiment, the test animal was BALB/c mice, the modeling cells were breast cancer 4T1 cells, and the transplantation tumor was modeled at 1×10^6 cells/mouse under the skin of the animal's right axilla. […] Each group was administered by intratumoral injection once every 3 days for a total of 3 times, each time at an injection dose of 150 μl/mouse. On the 5th day after the administration was ended, the animals were euthanized, and the tumor weight was measured after anatomy to the animals. The tumor inhibition rate was calculated from the negative control group.
In another experiment, the test animal was a BALB/c mouse, the modeling cells were breast cancer 4T1 cells, and the transplantation tumor under the skin of the animal's right axilla was modeled at 1×10^6 cells/mouse.
Method for hyperthyroidism: Taking hyperthyroidism as a model, the model was built with levothyroxine (intraperitoneal injection, with a dose of 50 μg/100 g body weight, for consecutive 10 days). […] Administration was started on the day of grouping. The negative control was a normal saline spray, and the positive control was methimazole. […] Both the negative control group and the study group were injected once every 1 days in the swollen area, with 150 μl/mouse each time, for a total of 8 times.
The observed, measured and analyzed items in the experiment included serological examination and thyroid pathological examination on the day of administration and the 16th day after the administration, in addition to the regular food intake, body weight, and general state. The serological examination employed radioimmunoassay (RIA) to determine concentrations of serum T3, T4 and thyroid-stimulating hormone (TSH). The pathological examination observed thyroid morphology, follicular morphology, epithelial cell morphology, and interlobular fibrous tissue morphology.

In the case of `Cn1cc[nH]c1=S` [Thiamazole, methimazole], the “serum T3” value in the data set with hyperthyroidism (negative control 1.9±0.1, blank 0.8±0.1) stood at 1.1±0.1. Moreover, in the data set with hyperthyroidism (negative control 171.2±9.3, blank 39.6±3.1), the “serum T4” value was found to be 66.3±3.6.
Take `N[C@@H](CCC(=O)N[C@@H](CS)C(=O)NCC(=O)O)C(=O)O` [10% glutathione, Reduced glutathione]: the Tumor inhibition rate in [1] is given as 64%; in data set [2] it was 57%; in data set [3], 61%; in [5] it was 61%; in [6], 65%; in data set [7] it was 59%. Also, the Tumor inhibition rate in data set [8] was 59%; in data set [9], 53%; in data set [10] it was 67%; in data set [11] (setting [14]), 61%; in [11] (setting [17]) it was “(62%)”. Moreover, the “Tumor inhibition rate of intraperitoneal injection” value in data set [2] amounted to 51%; in data set [11] (setting [15]), 3%; in [11] (setting [16]), 1%. The “Tumor inhibition rate of intratumoral injection” value in [2] worked out at 3%. In the data set with HepG2, this compound had an Intratumoral tissue destruction of 1. Further, the “histological observation of the tumor” value is “no obvious difference between group A and the blank group” in [4] (intraperitoneal injection); “obvious intratumoral tissue destruction” in data set [4] (intratumoral injection). Moreover, the “Intratumoral injection Tumor inhibition rate” value in data set [11] (setting [15]) amounted to 58%; in data set [11] (setting [16]), 59%. Also, the “Intratumoral injection Tumor weight” value in data set [11] (setting [15]) came out at 0.97 ± 0.24 g; in [11] (setting [16]), 1.04 ± 0.23 g.
The compound `CC(=O)O` [5% acetic acid, acetic acid, reference compound] displayed an Intratumoral tissue destruction with HepG2 of 5. Further, the Tumor inhibition rate result in data set [11] (setting [18]) is given as “(71%)”.
As to `N=C(N)NCCC[C@H](N)C(=O)O` [20% arginine, L-arginine], the Tumor inhibition rate in data set [1] stood at 55%; in data set [2] it was 61%; in data set [3], 63%; in [5], 62%; in [6] it was 55%; in data set [7] it was 52%. Besides, the Tumor inhibition rate in data set [8] turned out to be 53%; in data set [9], 56%; in [10], 56%; in the data set on breast cancer 4T1 cells (setting [20]) it was 27%; in the data set with breast cancer 4T1 cells (setting [21]) it was 28%; in the data set on breast cancer 4T1 cells (setting [22]), 34%. Besides, the Tumor inhibition rate in data set [11] (setting [14]) is 63%; in data set [11] (setting [18]) it was “(60%)”; in data set [11] (setting [17]) it was “(61%)**”. Moreover, the “Tumor inhibition rate of intraperitoneal injection” value is 56% in [2] and 5% in [11] (setting [16]). In addition, in data set [2], the “Tumor inhibition rate of intratumoral injection” value is recorded as 5%. For the same compound, in data set [12], the “Drug pH” value was 10.8. Besides, the “Intratumoral injection Tumor inhibition rate” value with breast cancer 4T1 cells (setting [19]) is listed as 33%; in [11] (setting [16]), 61%. Further, the “Intratumoral injection Tumor weight” value is 0.86 ± 0.23 g in the data set with breast cancer 4T1 cells (setting [19]) and 0.99 ± 0.21 g in data set [11] (setting [16]). Moreover, the “Tumor weight (x ± s)” value was determined as 1.72 g in the data set on breast cancer 4T1 cells (setting [20]) and 1.75 ± 0.29 g with breast cancer 4T1 cells (setting [21]). Also, the Tumor weight in the data set with breast cancer 4T1 cells (setting [22]) was 1.03 ± 0.29 g.
With `O=c1[nH]cc(F)c(=O)[nH]1` [5-fluorouracil], in data set [13], the “saturated concentration (Canti)” value is “about 1.5%”.
